Results from patent US20220041582A1, “ISOXAZOLINE COMPOUNDS FOR CONTROLLING INVERTEBRATE PESTS” (FMC Corporation, priority 2018, published 2022).
Read-outs that look alike come from different tables or passages of the source.

Tests used:
Assay type in all cases: in vivo
[1] = system: cotton melon aphid (Aphis gossypii (Glover)); test: Test F: control of cotton melon aphid through contact and/or systemic means; conditions: 144 h
Experimental: (§1) Formulation and Spray Methodology for Tests A-H
(§2) Test compounds were formulated using a solution containing 10% acetone, 90% water and 300 ppm Activator 90® non-ionic surfactant (Loveland Products, Loveland, Colo., USA). The formulated compounds were applied in 1 mL of liquid through an atomizer nozzle positioned 1.27 cm (0.5 inches) above the top of each test unit. Test compounds were sprayed at the rates indicated, and each test was replicated three times.
[…] This was pre-infested with 30-40 insects on a piece of leaf according to the cut-leaf method, and the soil of the test unit was covered with a layer of sand.
Test compounds were formulated and sprayed at 250, 50 and 10 ppm. After spraying, the test units were maintained in a growth chamber for 6 days at 19° C. and 70% relative humidity. Each test unit was then visually assessed for insect mortality.

[2] = system: green peach aphid (Myzus persicae (Sulzer)); test: Test E: control of green peach aphid through contact and/or systemic means; conditions: 144 h
Experimental: as §1, §2
For evaluating control of green peach aphid (Myzus persicae (Sulzer)) through contact and/or systemic means, the test unit consisted of a small open container with a 12-15-day-old radish plant inside. This was pre-infested by placing on a leaf of the test plant 30-40 aphids on a piece of leaf excised from a culture plant (cut-leaf method). The aphids moved onto the test plant as the leaf piece desiccated. After pre-infestation, the soil of the test unit was covered with a layer of sand.
Test compounds were formulated and sprayed at 250, 50 and 10 ppm. After spraying of the formulated test compound, each test unit was allowed to dry for 1 hour and then a black, screened cap was placed on top. The test units were held for 6 days in a growth chamber at 19-21° C. and 50-70% relative humidity. Each test unit was then visually assessed for insect mortality.

[3] = system: corn planthopper (Peregrinus maidis (Ashmead)); test: Test C: control of corn planthopper through contact and/or systemic means; conditions: for mortality at 50 ppm: Peregrinus maidis, 144 h
Experimental: as §1, §2
For evaluating control of corn planthopper (Peregrinus maidis (Ashmead)) through contact and/or systemic means, the test unit consisted of a small open container with a 3-4-day-old corn (maize) plant inside. White sand was added to the top of the soil prior to application of the test compound.
Test compounds were formulated and sprayed at 50 and 10 ppm. After spraying of the formulated test compound, the test units were allowed to dry for 1 h before they were post-infested with ˜15-20 nymphs (18-to-21-day-old). A black, screened cap was placed on the top of each test unit, and the test units were held for 6 days in a growth chamber at 22-24° C. and 50-70% relative humidity. Each test unit was then visually assessed for insect mortality.

[4] = system: potato leafhopper (Empoasca fabae (Harris)); test: Test D: control of potato leafhopper through contact and/or systemic means; conditions: 144 h
Experimental: as §1, §2
[…] White sand was added to the top of the soil, and one of the primary leaves was excised prior to application of the test compound.
Test compounds were formulated and sprayed at 250, 50 and 10 ppm. After spraying of the formulated test compound, the test units were allowed to dry for 1 hour before they were post-infested with 5 potato leafhoppers (18-to-21-day-old adults). A black, screened cap was placed on the top of the test unit, and the test units were held for 6 days in a growth chamber at 20° C. and 70% relative humidity. Each test unit was then visually assessed for insect mortality.

[5] = system: sweetpotato whitefly (Bemisia tabaci (Gennadius)); test: Test G: control of sweetpotato whitefly through contact and/or systemic means; conditions: 312 h
Experimental: as §1, §2
For evaluating control of the sweetpotato whitefly (Bemisia tabaci (Gennadius)) through contact and/or systemic means, the test unit consisted of a small open container with a 12-14-day-old cotton plant inside. Prior to the spray application, both cotyledons were removed from the plant, leaving one true leaf for the assay. Adult whiteflies were allowed to lay eggs on the plant and then were removed from the test unit. Cotton plants infested with at least 15 eggs were submitted to the test for spraying.
Test compounds were formulated and sprayed at 250, 50 and 10 ppm. After spraying, the test units were allowed to dry for 1 hour. The cylinders were then removed, and the units were taken to a growth chamber and held for 13 days at 28° C. and 50-70% relative humidity. Each test unit was then visually assessed for insect mortality.

[6] = system: Western Flower Thrips (Frankliniellla occidentalis (Pergande)); test: Test H: control of Western Flower Thrips through contact and/or systemic means; conditions: 50 ppm spray; 6 days; 30% or less plant damage and/or 100% mortality
Experimental: as §1, §2
For evaluating control of the Western Flower Thrips (Frankliniellla occidentalis (Pergande)) through contact and/or systemic means, the test unit consisted of a small open container with a 8-9-day-old Soleil bean plant inside.
Test compounds were formulated and sprayed at 250, 50, 10 and 2 ppm. After spraying, the test units were allowed to dry for 1 hour, and then ˜60 thrips (adults and nymphs) were added to each unit. A black, screened cap was placed on top, and the test units were held for 6 days at 25° C. and 45-55% relative humidity. Each test unit was then visually assessed for plant damage and insect mortality.

[7] = 50 ppm spray, 6 days, read-out: mortality
[8] = 50 ppm spray, 13 days, read-out: mortality
[9] = 10 ppm spray, 6 days, read-out: mortality

Row | Compound | mortality at 50 ppm [1, 7] [%] | mortality at 50 ppm [2, 7] [%] | mortality at 50 ppm [3, 7] [%] | mortality at 10 ppm [1] [%] | mortality at 50 ppm [1] [%] | mortality at 50 ppm [2] [%] | mortality at 50 ppm [3] [%] | mortality at 50 ppm [4] [%] | mortality at 10 ppm [5] [%] | mortality at 50 ppm [5] [%] | mortality at 10 ppm [2] [%] | further results
1 | C#CCNC(=O)c1ccc(C2=NOC(c3ccc(F)c(C(F)(F)F)c3)(C(F)(F)F)C2)c2ccncc12 (stereo not drawn) [Compound 74, 5-[5-[4-fluoro-3-(trifluoromethyl)phenyl]-4,5-dihydro-5-(trifluoromethyl)-3-isoxazolyl]-N-2-propyn-1-yl-8-isoquinolinecarboxamide] | ≥ 80 | ≥ 80 | ≥ 80 | – | – | – | – | – | – | – | – | mortality at 50 ppm [4, 7]: ≥ 80%; mortality at 50 ppm [5, 8]: ≥ 50%
2 | O=C(NC1CC1)c1ccc(C2=NOC(c3ccc(F)c(C(F)(F)F)c3)(C(F)(F)F)C2)c2ccncc12 (stereo not drawn) [Compound 55, N-cyclopropyl-5-[5-[4-fluoro-3-(trifluoromethyl)phenyl]-4,5-dihydro-5-(trifluoromethyl)-3-isoxazolyl]-8-isoquinolinecarboxamide] | ≥ 80 | ≥ 80 | ≥ 80 | – | – | – | – | – | – | – | – | mortality at 10 ppm [1, 9]: ≥ 80%; mortality at 50 ppm [4, 7]: ≥ 80%; mortality at 10 ppm ([5]; 10 ppm spray, 13 days, read-out: mortality): ≥ 50%; mortality at 50 ppm [5, 8]: ≥ 50%
3 | O=C(NCc1ncccn1)c1ccc(C2=NOC(c3ccc(F)c(C(F)(F)F)c3)(C(F)(F)F)C2)c2ccncc12 (stereo not drawn) [Compound 76] | – | – | – | – | – | – | – | – | – | – | – | mortality ([3]; 10 ppm spray, 6 days): at least 80%
4 | O=C(NCc1ncccn1)c1ccc(C2=NOC(c3cc(Cl)c(F)c(Cl)c3)(C(F)(F)F)C2)c2ccncc12 (stereo not drawn) [Compound 4, 5-[5-(3,5-dichloro-4-fluorophenyl)-4,5-dihydro-5-(trifluoromethyl)-3-isoxazolyl]-N-(2-pyrimidinylmethyl)-8-isoquinolinecarboxamide] | – | – | – | ≥ 80 | ≥ 80 | ≥ 80 | ≥ 80 | ≥ 80 | ≥ 50 | ≥ 50 | – | –
5 | O=C(NCc1ncccn1)c1ccc(C2=NOC(c3cccc(C(F)(F)F)c3)(C(F)(F)F)C2)c2ccncc12 (stereo not drawn) [Compound 18] | ≥ 80 | ≥ 80 | ≥ 80 | – | – | – | – | – | – | – | – | mortality at 10 ppm [2, 9]: ≥ 80%
6 | CSCCNC(=O)c1ccc(C2=NOC(c3cccc(C(F)(F)F)c3)(C(F)(F)F)C2)c2ccncc12 (stereo not drawn) [Compound 29] | ≥ 80 | ≥ 80 | ≥ 80 | – | – | – | – | – | – | – | – | –
7 | C#CCNC(=O)c1ccc(C2=NOC(c3cc(Cl)c(F)c(Cl)c3)(C(F)(F)F)C2)c2ccncc12 (stereo not drawn) [Compound 48, 5-[5-(3,5-dichloro-4-fluorophenyl)-4,5-dihydro-5-(trifluoromethyl)-3-isoxazolyl]-N-2-propyn-1-yl-8-isoquinolinecarboxamide] | – | – | – | – | ≥ 80 | ≥ 80 | ≥ 80 | ≥ 80 | – | – | – | –
8 | O=C(NC1CC1)c1ccc(C2=NOC(c3cc(Cl)cc(C(F)(F)F)c3)(C(F)(F)F)C2)c2ccncc12 (stereo not drawn) [Compound 35, 5-[5-[3-chloro-5-(trifluoromethyl)phenyl]-4,5-dihydro-5-(trifluoromethyl)-3-isoxazolyl]-N-cyclopropyl-8-isoquinolinecarboxamide] | – | – | – | ≥ 80 | ≥ 80 | ≥ 80 | ≥ 80 | ≥ 80 | ≥ 50 | ≥ 50 | ≥ 80 | mortality at 10 ppm [4]: ≥ 80%
9 | COC(=O)[C@@H](C)NC(=O)c1ccc(C2=NOC(c3cc(Cl)c(F)c(Cl)c3)(C(F)(F)F)C2)c2ccncc12 (stereo partly drawn) [Compound 6] | – | – | – | ≥ 80 | ≥ 80 | ≥ 80 | ≥ 80 | ≥ 80 | – | ≥ 50 | ≥ 80 | –
10 | CCN1OC[C@@H](NC(=O)c2ccc(C3=NOC(c4cc(Cl)cc(Cl)c4)(C(F)(F)F)C3)c3ccncc23)C1=O (stereo partly drawn) [Compound 1] | – | – | – | – | ≥ 80 | – | – | – | – | ≥ 50 | – | mortality at 250 ppm [1]: ≥ 80%; mortality at 250 ppm [2]: ≥ 80%; control efficacy: plant damage (and/or 100% mortality) [6]: ≤ 30%; mortality at 250 ppm [5]: ≥ 50%
11 | CC(C)NC(=O)c1ccc(C2=NOC(c3cc(Cl)c(F)c(Cl)c3)(C(F)(F)F)C2)c2ccncc12 (stereo not drawn) [Compound 28] | – | – | – | ≥ 80 | ≥ 80 | ≥ 80 | – | ≥ 80 | ≥ 50 | ≥ 50 | ≥ 80 | –
12 | O=C(NCC1CC1)c1ccc(C2=NOC(c3ccc(F)c(C(F)(F)F)c3)(C(F)(F)F)C2)c2ccncc12 (stereo not drawn) [Compound 58, N-(cyclopropylmethyl)-5-[5-[4-fluoro-3-(trifluoromethyl)phenyl]-4,5-dihydro-5-(trifluoromethyl)-3-isoxazolyl]-8-isoquinolinecarboxamide] | ≥ 80 | ≥ 80 | ≥ 80 | – | – | – | – | – | – | – | – | mortality at 10 ppm [1, 9]: ≥ 80%; mortality at 10 ppm [2, 9]: ≥ 80%; mortality at 50 ppm [4, 7]: ≥ 80%; mortality at 50 ppm [5, 8]: ≥ 50%
13 | C[C@@H](NC(=O)c1ccc(C2=NOC(c3cc(Cl)c(F)c(Cl)c3)(C(F)(F)F)C2)c2ccncc12)c1ccccn1 (stereo partly drawn) [Compound 13] | – | – | – | ≥ 80 | ≥ 80 | ≥ 80 | – | ≥ 80 | ≥ 50 | ≥ 50 | ≥ 80 | mortality at 10 ppm [4]: ≥ 80%
